# According to ChEMBL document CHEMBL4038312 (J Med Chem, 2017):
# What was measured:
# physchem [1] = conditions: octanol/water, pH 7.4
# physchem [2] = assay: physchem
# [3] = Dissociation constant, pKa of the compound; type: physicochemical
# [4] = Volume of distribution at steady state in dog at 0.1 mg/kg, iv; type: ADME, organism-based, Canis lupus familiaris; conditions: in vivo, read-out: Vdss
# in vivo = conditions: rat, po, 3 mg/kg
# [5] = Volume of distribution at steady state in rat at 1 mg/kg, iv; type: ADME, organism-based; conditions: in vivo, read-out: Vdss
# [6] = Drug excretion in iv dosed bile duct cannulated rat bile after 6 hrs; type: ADME, organism-based; conditions: read-out: Drug excretion
# [7] = Solubility of the compound at pH 6.5; type: physicochemical; conditions: buffer
# [8] = Permeability in RRCK cells; type: ADME, cell-based, Canis lupus familiaris, MDCKII-LE; conditions: dog, MDCK; read-out: permeability
# [9] = Cmax in rat at 3 mg/kg, po; type: ADME, organism-based; set-up: dose 3 mg/kg, route oral; conditions: in vivo
# [10] = AUC (0 to infinity) in rat at 3 mg/kg, po; type: ADME, organism-based; set-up: dose 3 mg/kg, time infinity, route oral; conditions: in vivo
# [11] = AUC (0 to infinity) in dog at […], po; type: ADME, organism-based, Canis lupus familiaris; set-up: dose 0.13 mg/kg, time infinity, route oral; conditions: in vivo
# [12] = Oral bioavailability in dog at […]; type: ADME, organism-based, Canis lupus familiaris; conditions: in vivo
# [13] = Cmax in dog at […], po; type: ADME, organism-based, Canis lupus familiaris; set-up: dose 0.13 mg/kg, route oral; conditions: in vivo
# [14] = Cmax in human at 100 ug, po; type: ADME; set-up: dose 100 ug, route oral; conditions: in vivo
# [15] = Oral bioavailability in human at 100 ug; type: ADME, organism-based; conditions: in vivo
# [16] = Apparent permeability from basolateral to apical side in MDCK cells harboring MDR1; type: ADME, cell-based, Canis lupus familiaris; conditions: dog
# [17] = Tmax in dog at 3 mg/kg, po; type: ADME, organism-based, Canis lupus familiaris; conditions: in vivo
# [18] = Volume of distribution at steady state in human at 100 ug, iv; type: ADME; conditions: in vivo, read-out: Vdss
# Homo sapiens = assay: Unbound Cmax in human at 2400 mg, po; type: ADME; conditions: in vivo
# [19] = Tmax in rat at 3 mg/kg, po; type: ADME, organism-based; conditions: in vivo
# [20] = Cmax in dog at 3 mg/kg, po; type: ADME, organism-based, Canis lupus familiaris; set-up: dose 3 mg/kg, route oral; conditions: in vivo
# [21] = Apparent permeability from apical to basolateral side in MDCK cells harboring MDR1; type: ADME, cell-based, Canis lupus familiaris; conditions: dog
# [22] = Basic dissociation constant, pKa of the compound; type: physicochemical
# [23] = Oral bioavailability in dog at 3 mg/kg; type: ADME, organism-based, Canis lupus familiaris; conditions: in vivo
compound,measurement,setting,value
N#Cc1cc(S(=O)(=O)Nc2ncns2)ccc1Oc1ccc(C(F)(F)F)cc1-c1cccnn1,logD,physchem [1],0.7
N#Cc1cc(S(=O)(=O)Nc2ncns2)ccc1Oc1ccc(C(F)(F)F)cc1-c1ccncn1,logD,physchem [1],0.9
Cn1nccc1-c1cc(Cl)ccc1Oc1ccc(S(=O)(=O)Nc2nncs2)cc1C#N,pKa,physchem [2],4.5
O=S(=O)(Nc1cscn1)c1cc(Cl)c(Oc2ccc(C(F)(F)F)cc2-c2ccnnc2)cc1F,logD,physchem [1],1.6
same,pKa,[3],5.6
Cn1nccc1-c1cc(Cl)ccc1Oc1ccc(S(=O)(=O)Nc2ncns2)cc1F,pKa,physchem [2],3.5
N#Cc1cc(S(=O)(=O)Nc2ncns2)ccc1Oc1ccc(Cl)cc1-c1ccn[nH]1,logD,physchem [1],1.6
Cn1nccc1-c1cc(Cl)ccc1Oc1ccc(S(=O)(=O)Nc2ncns2)cc1C#N,pKa,physchem [2],3.5
Cn1nccc1-c1cc(Cl)ccc1Oc1cc(F)c(S(=O)(=O)Nc2nncs2)cc1Cl,pKa,physchem [2],4.5
N#Cc1cc(S(=O)(=O)Nc2ncns2)ccc1Oc1ccc(Cl)cc1-c1ccnc(N)c1,logD,physchem [1],1.6
CCN1CC(n2nccc2-c2cc(Cl)ccc2Oc2cc(F)c(S(=O)(=O)Nc3cscn3)cc2F)C1,logD,physchem [1],1.6
N#Cc1cc(S(=O)(=O)Nc2ncns2)ccc1Oc1ccc(C(F)(F)F)cc1-c1ccnnc1,logD,physchem [1],0.7
same,Vd,[4],1.2 L/kg
same,bioavailability,in vivo,< 1%
same,Vd,[5],1.3 L/kg
same,dose excreted at 6 h,[6],73%
same,solubility,[7],> 300 µM
same,Papp,[8],0.7 ×10⁻⁶ cm/s
same,Cmax,[9],1 ng/mL
same,AUC(0-inf),[10],5 ng·h/mL
N#Cc1cc(S(=O)(=O)Nc2ncns2)ccc1Oc1ccc(Cl)cc1-c1cn[nH]c1N,logD,physchem [1],1
CN1CC(n2nccc2-c2cc(Cl)ccc2Oc2cc(F)c(S(=O)(=O)Nc3cscn3)cc2F)C1,logD,physchem [1],1.3
N#Cc1cc(S(=O)(=O)Nc2ncns2)ccc1Oc1ccc(Cl)cc1-c1cn[nH]c1,logD,physchem [1],1.7
same,AUC(0-inf),[11],40 ng·h/mL
same,Vd,[4],0.5 L/kg
same,bioavailability,[12],23%
same,Vd,[5],2.3 L/kg
same,Cmax,[13],18 ng/mL
same,solubility,[7],259 µM
same,pKa,physchem [2],3.5
same,Papp,[8],2.1 ×10⁻⁶ cm/s
Cn1nccc1-c1cc(Cl)ccc1Oc1cc(F)c(S(=O)(=O)Nc2ncns2)cc1F,pKa,physchem [2],3.5
Nc1n[nH]cc1-c1cc(C(F)(F)F)ccc1Oc1cc(F)c(S(=O)(=O)Nc2cscn2)cc1Cl,logD,physchem [1],2.2
same,pKa,physchem [2],6.3
Cc1[nH]ncc1-c1cc(C(F)(F)F)ccc1Oc1ccc(S(=O)(=O)Nc2ncns2)cc1C#N,logD,physchem [1],2
same,Vd,[4],1.8 L/kg
same,bioavailability,in vivo,< 5%
same,Vd,[5],6.3 L/kg
same,solubility,[7],> 300 µM
same,pKa,physchem [2],3.5
same,Papp,[8],1.1 ×10⁻⁶ cm/s
same,Cmax,[9],4 ng/mL
same,AUC(0-inf),[10],26 ng·h/mL
CN1CC(n2nccc2-c2cc(Cl)ccc2Oc2cc(F)c(S(=O)(=O)Nc3ncns3)cc2F)C1,logD,physchem [1],1
Nc1[nH]ncc1-c1cc(Cl)ccc1Oc1cc(F)c(S(=O)(=O)Nc2cscn2)cc1Cl [PF-05089771],logD,physchem [1],2.3 to 2.6
same,Vd,[4],0.2 L/kg
same,Cmax,[14],11 ng/mL
same,bioavailability,[15],110%
same,Papp B→A,[16],6.3 ×10⁻⁶ cm/s
same,Tmax,[17],0.9 h
same,Vd,[18],0.15 L/kg
same,fCmax,Homo sapiens,226 nM
same,Tmax,[19],2 h
same,solubility,[7],< 0.3 µM
same,Cmax,[20],998 ng/mL
same,pKa,physchem [2],6.3
same,Papp,[8],3.8 ×10⁻⁶ cm/s
same,Papp A→B,[21],0.7 ×10⁻⁶ cm/s
same,Cmax,[9],541 ng/mL
CCN1CC(n2nccc2-c2cc(Cl)ccc2Oc2ccc(S(=O)(=O)Nc3cscn3)cc2C#N)C1 [PF-05150122],logD,physchem [1],1.4
same,Vd,[4],0.9 L/kg
same,Cmax,[14],0.67 ng/mL
same,bioavailability,in vivo,68%
same,bioavailability,[15],52%
same,Vd,[5],29.7 L/kg
same,Papp B→A,[16],11 ×10⁻⁶ cm/s
same,Vd,[18],0.41 L/kg
same,Tmax,[19],0.3 h
same,solubility,[7],> 262 µM
same,pKa,physchem [2],6.5
same,Papp,[8],3.2 ×10⁻⁶ cm/s
same,Papp A→B,[21],< 0.5 ×10⁻⁶ cm/s
same,Cmax,[9],92.7 ng/mL
same,pKa,[22],7.4
O=S(=O)(Nc1nncs1)c1cc(Cl)c(Oc2ccc(C(F)(F)F)cc2-c2ccnnc2)cc1F [PF-05186462],logD,physchem [1],0.8 to 0.9
same,Vd,[4],0.5 L/kg
same,Cmax,[14],4.8 ng/mL
same,pKa,[3],4
same,bioavailability,in vivo,16%
same,bioavailability,[15],101%
same,Vd,[5],11 L/kg
same,bioavailability,[23],54%
same,Papp B→A,[16],1.1 ×10⁻⁶ cm/s
same,Tmax,[17],1.5 h
same,Vd,[18],0.18 L/kg
same,Tmax,[19],1.5 h
same,solubility,[7],286 µM
same,Cmax,[20],2890 ng/mL
same,pKa,physchem [2],4.3
same,Papp,[8],0.7 ×10⁻⁶ cm/s
same,Papp A→B,[21],< 0.5 ×10⁻⁶ cm/s
same,Cmax,[9],73.2 ng/mL
